Format in all cases: cell-based, human
In one assay the test system is strains 1505b and 1513c. Briefly: Tyrosinase activity as a measure of stability, overall. As to the method: With continued reference to Figs. 7, 8 and 9, to determine the stability of CUV9900 versus that of NDP-MSH and α-MSH, melanocytes were treated with 1 nM of each peptide, namely with CUV9900, NDP-MSH and α-MSH, for a total of 6 days, or with 1 nM peptides that were incubated for 5 hours at 37 °C prior to addition to the cultures, every other day, for a total of 6 days. Tyrosinase activity was measured at the end of treatment. In the experiments, cell number represents the mean percent of control of 3 determinations/ group ±SE, and tyrosinase activity data represent the mean percent of control of 6 determinations ±S.E. It should be noted that for the sake of reproducibility the experiment of strain 1513c of Fig. 9 was performed once more 6 months later than the experiment of Fig. 7.
Melanocytes were treated for 3 days with the designated concentrations of CUV9900, NDP-MSH, or MSH, then maintained in absence of peptides for 4 days. Tyrosinase activity was determined 3 days after treatment.

For a further assay, the system named is melanocyte strain 103c. Nature of the assay: UV-induced apoptosis by Annexin Va staining, flow cytometry. The following applies: 1 nM, 4 days prior and 1 day following 105 mJ/cm^2 UV. As to the method: With reference to Fig. 12 and 13, melanocytes were maintained for the duration of the experiment in medium lacking bovine pituitary extract (BPE) to determine the survival effect of α-MSH or its analogs in the absence of the anti-apoptotic effect of TPA. Melanocytes were treated with 0, 1 nM α-MSH, 1 µM Forskolin, or 1 nM NDP-MSH or CUV9900 for 4 days prior to, and 24 h after exposure to a dose of 105 mJ/cm^2 UV, then stained for Annexin Va staining. The data are represented as percent increase above control, with triplicate dishes included in each group.
Comparison of the effect of CUV9900, NDP-MSH and MSH on the UV-induced apoptosis were made in the melanocyte strains 103c and melanocyte strain 1513c of Figs. 12 and 13, respectively. Both strains were treated with 1 nM CUV9900, NDP and MSH, respectively for 4 days prior and 1 day following irradiation. Floating as well as attached cells were harvested and stained for Annexin V, and analyzed by flow cytometry.

Assay [1] relates to lightly pigmented strain 1563c and strain 102b. Nature of the assay: Ultrastructural visualization of DOPA-stained HM (electron microscopy). Particulars: 0.1 nM or 1 nM CUV9900 or 1 nM MSH; strains 1563c and 102b. As to the method: With reference to Figs. 14 and 15, two melanocytic strains, a lightly pigmented strain 1563c of Fig. 14 and strain 102b of Fig. 15 were plated in 4-well chamber slides and treated […] with either 0.1 nM or 1 nM CUV9900 or 1 nM MSH for a total of 6 days. Cells were processed for electron microscopy in the presence or absence of histochemical reaction with DOPA. Microtome sections were analyzed in a JEOL JEM-1230 transmission electron microscope and photomicrographs (15,000 X) of the perinuclear area and dendrites were taken for each experimental group.

The next assay deals with melanocytes strain 1505b. Nature of the assay: cAMP levels (125I radioimmunoassay), dose-response. The following applies: at 1 nM, 45 min, 0.1 mM IBMX. As to the method:
(§1) Dose-response experiments were carried out on three melanocytic strains, namely strains 1513c, 1505b and 105c melanocytes were treated with 1 pM-10 nM CUV9900 or NDP-MSH, or with 0.1-10 nM MSH for 45 minutes in the presence of 0.1 mM isobutyl methylxanthine (IBMX). The results obtained from strain 1513c are shown in Fig. 3, the results obtained from strain 1505b are shown in Fig. 5a and the results obtained from strain 105c are shown in Fig. 5b. The strains 1505b and 1513c were obtained from the same human adult while the strain 105c was obtained from another human adult. Cyclic AMP is the second messenger for the melanocortin-1 receptor, and assessment is usually performed indicating cellular activity reflective of melanogenesis. Cyclic AMP levels were determined using ^125I-labeled radioimmunoassay kit (Perkin Elmer, Waltham, MA), in human melanocytes that were treated with 0 (control), 0.1-10.0 nM α-MSH, or 0.001-10 nM NDP-MSH or 0.001-10.0 nM CUV 9900 for 45 min. in the presence of 0.1 mM IBMX, a phosphodiesterase inhibitor to prevent cAMP degradation. Triplicate wells were included in each group, and duplicate samples from each well were assayed for cAMP levels. Each data point is the mean percent of control of 6 determinations/group ±S.E.

Another assay concerns melanocytes strain 105c. Briefly: cAMP levels (125I radioimmunoassay), dose-response. Particulars: 45 min, 0.1 mM IBMX. As to the method:
as §1

The next assay has as its system melanocytic strain 10.3c. Briefly: UV-induced generation of hydrogen peroxide (luminol luminescence). Particulars: 1 nM, 105 mJ/cm^2 UV, 0, 30 and 45 minutes after UV. From the text:
With reference to Figs. 10 and 11, melanocytes were irradiated with a bank of FS 20 lamps, with 75% emission in the UVB, and 25% emission in the UVA spectra, with peak emission at 313 nm wavelength. Any emission of UVC rays from the UV source (FS 20 lamps) was blocked by Kodacel filter. Prior to irradiation, the culture medium was replaced by PBS, which was removed after UV exposure, and fresh medium added.
Melanocytes were irradiated with 105 mJ/cm^2 UV, and treated immediately while in PBS with 0, 1 nM α-MSH or 1 nM CUV9900. Generation of hydrogen peroxide, representative of reactive oxygen species (ROS), was determined by measuring the luminescence of luminol at 0, 30, and 45 min after UV exposure. Triplicate dishes were included in each group, and duplicate samples from each dish were used for measurement of hydrogen peroxide at each time point. Each data point represents the mean of 6 determinations/group ±S.E.

Non-standard residues stand in square brackets, D forms with d. Nle = CCCC[C@H](N)C(=O)O

As for “Ac-Nle-Glu His-D-Phe-Arg-Trp-NH2 (Ac-[Nle]EH[dF]RW-NH2; SMILES CCCC[C@H](NC(C)=O)C(=O)N[C@@H](CCC(=O)O)C(=O)N[C@@H](Cc1c[nH]cn1)C(=O)N[C@H](Cc1ccccc1)C(=O)N[C@@H](CCCNC(=N)N)C(=O)N[C@@H](Cc1c[nH]c2ccccc12)C(N)=O) [CUV9900, hexapeptide, alpha-MSH analogue]”, in the assay with strains 1505b and 1513c, the “superior tyrosinase activity in comparison to MSH” value is reported as 42.5% and the “superior tyrosinase activity in comparison to NDP-MSH” value is recorded as 19.8%. The “anti-apoptotic effect (UV-induced apoptosis, Annexin V)” value in the assay on melanocyte strain 103c is on record as “equal anti-apoptotic effect than NDP-MSH”. Besides, the “melanosomes, electron microscopy” value in assay [1] was “increased mature (stage IV) melanosomes in the perinuclear area and more so in dendrites”. Also, the “cAMP, potency comparison” value with melanocytes strain 1505b is listed as “more potent than MSH”. Moreover, the “elevation of cAMP, comparison with NDP” value in the assay with melanocytes strain 105c (0.01 nM and 0.1 nM) is “less elevation of cAMP in comparison to 0.01 nM and 0.1 nM NDP”. For the same substance, the “cAMP, comparison with MSH” value in the assay with melanocytes strain 105c (0.1 nM, 1 nM and 10 nM) is “significantly higher than 0.1 nM, 1 nM and 10 nM MSH”. In the assay on melanocytic strain 10.3c, the “UV-induced hydrogen peroxide generation” value was “significant reduction of UV-induced hydrogen peroxide generation”.

The values above are taken from EP2487185A1, “Hexapeptide with improved activity in the repair of cellular DNA of dermal cells” (Clinuvel Pharmaceuticals Limited, priority 2011, dated 2012).
